Experiment [1] deals with T1, D112N-CXCR3 (Homo sapiens, UniProt P49682, D112N).
T1 construct: expressed in transfected cells; host or cells: murine pre-B cell line L1.2, transient transfection
T1 sequence (P49682 1-368 D112N): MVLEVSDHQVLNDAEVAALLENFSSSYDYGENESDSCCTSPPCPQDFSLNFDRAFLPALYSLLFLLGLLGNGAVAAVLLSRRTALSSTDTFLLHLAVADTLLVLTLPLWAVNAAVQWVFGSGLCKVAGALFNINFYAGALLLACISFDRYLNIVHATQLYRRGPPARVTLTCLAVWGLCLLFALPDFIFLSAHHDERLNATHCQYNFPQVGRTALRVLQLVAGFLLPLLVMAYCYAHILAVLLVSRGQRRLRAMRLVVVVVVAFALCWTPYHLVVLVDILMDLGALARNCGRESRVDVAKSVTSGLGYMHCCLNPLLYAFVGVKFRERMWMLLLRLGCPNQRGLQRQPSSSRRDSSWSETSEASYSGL
Kind of experiment: Whole-cell 125I-CXCL11 binding assay, L1.2 transfectants. Conditions: D112N-CXCR3 transfectants (Figure 1); read-out: IC50 for displacement of 125I-CXCL11.

The target in experiment [2] is T2, CXCR3 Y60A (Homo sapiens, UniProt P49682, Y60A).
T2 construct: expressed in transfected cells; host or cells: murine pre-B cell line L1.2, transient transfection
T2 sequence (P49682 1-368 Y60A): T1 sequence (P49682 1-368 D112N) with Y60A, N112D
The experiment is described as above.

The target in experiment [3] is T3, CXCR3 F131A (Homo sapiens, UniProt P49682, F131A).
T3 construct: expressed in transfected cells; host or cells: murine pre-B cell line L1.2, transient transfection
T3 sequence (P49682 1-368 F131A): T1 sequence (P49682 1-368 D112N) with N112D, F131A
Described as above. Conditions: 0.1 nM 125I-CXCL11, read-out: IC50 ligand binding (mean ± SEM).

The target in experiment [4] is T4, CXCR3 I279A (Homo sapiens, UniProt P49682, I279A).
T4 construct: expressed in transfected cells; host or cells: murine pre-B cell line L1.2, transient transfection
T4 sequence (P49682 1-368 I279A): T1 sequence (P49682 1-368 D112N) with N112D, I279A
Described as above. Conditions: I279A, 0.1 nM 125I-CXCL11; read-out: IC50 ligand binding (mean ± SEM).

In experiment [5] the target is T5, CXCR3 Y308A (Homo sapiens, UniProt P49682, Y308A).
T5 construct: expressed in transfected cells; host or cells: murine pre-B cell line L1.2, transient transfection
T5 sequence (P49682 1-368 Y308A): T1 sequence (P49682 1-368 D112N) with N112D, Y308A
The description is as above.

Experiment [6] relates to six 'loss of charge' CXCR3 mutants. Kind of experiment: Chemotaxis assay, panel of charged extracellular residue mutants. Conditions: 30 nM CXCL11, 100 μM TAK-779, versus WT. The class given is cell-based, human. The method, then: Assays of chemotactic responsiveness were carried out as previously described (Vaidehi et al., [2009]) using 96-well ChemoTx® plates with 5 μm pores (Neuroprobe, Gaithersburg, MD, USA). Migrating cells were detected by the use of CellTiter Glo® Dye (Promega, Southampton, UK) and resulting luminescence measured using a TopCount scintillation counter (PerkinElmer, Waltham, MA, USA). Basal migration of cells to buffer alone was subtracted from the resulting data, with individual results expressed as a percentage of the total cells applied to the filter. In all experiments, each data point was assayed in duplicate. In every experiment, cells transiently expressing WT CXCR3 were used as a positive control.
We have previously used an alternative panel of six ‘loss of charge’ CXCR3 mutants to determine the counterion for a negatively charged small molecule CXCR3 agonist (Nedjai et al., [2011]). Although these acidic residues lay outside our initially molecular modelling of the TAK-779:CXCR3 interaction, we tested the hypothesis that one or more of these acidic residues may contribute to TAK-779 binding. […]
Figure 6 Mutation of charged extracellular residues has no effect upon the ability of TAK-779 to inhibit chemotaxis in response to CXCL11. Migration of a panel of CXCR3 transfectants to 30 nM CXCL11 in the presence of 100 μM TAK-779 was determined.

These results are taken from publication PMC4376459, “CXCR3 antagonist VUF10085 binds to an intrahelical site distinct from that of the broad spectrum antagonist TAK-779” (British Journal of Pharmacology, 2015).

The structures appear in SMILES notation. Residue numbers refer to the chain shown, from its start.

In the case of `Cc1ccc(-c2ccc3c(c2)C=C(C(=O)Nc2ccc(C[N+](C)(C)C4CCOCC4)cc2)CCC3)cc1.[Cl-]` [TAK-779, N,N-dimethyl-N-[4-[[[2-(4-methylphenyl)-6,7-dihydro-5H-benzocyclohepten-8-yl]-carbonyl]amino]benzyl] tetrahydro-2H-pyran-4-aminium chloride], the IC50 (usually the concentration that gives 50% inhibition) was found to be 17.2 µM in experiment [1]; 14 ± 7.07 µM in experiment [2] (Y60A, 0.1 nM 125I-CXCL11, read-out: IC50 ligand binding (mean ± SEM)); 23.3 ± 6.57 µM in experiment [3]; 39.4 ± 15 µM in experiment [4]; 14.2 ± 3 µM in experiment [5] (Y308A, 0.1 nM 125I-CXCL11, read-out: IC50 ligand binding (mean ± SEM)). Also, the “reduction in IC50 value, ligand binding” value in experiment [2] (Y60A relative to WT) and in experiment [5] (Y308A relative to WT) was “twofold” each time. Also, the “ability to inhibit migration to CXCL11” value in experiment [6] is recorded as “not reduced”.
